Data reported in the supplement of paper PMC10307832.

How the values were obtained:
Experiment in all cases: relative viability (nuclei count vs DMSO), 5 days (fraction); higher = more cells survive
KN-93 = compound: CN(C/C=C/C1=CC=C(C=C1)Cl)CC2=CC=CC=C2N(CCO)S(=O)(=O)C3=CC=C(C=C3)OC [KN-93]
How it was run: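 Five library-drug doses, separated by factors of √10, were pinned into 1536-well plates holding lung cancer cell lines after an overnight stay at 37 °C. Cells were fixed, permeabilised and Hoechst-stained in one step after 5 days without medium change, then imaged at 4×. Viability compares treated-well with vehicle-well nuclei, counted in MetaXpress, as a median across plates. Passing plates had control CV below 25% and at least one doubling.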

KN-93 + Navitoclax = compound: CN(C/C=C/C1=CC=C(C=C1)Cl)CC2=CC=CC=C2N(CCO)S(=O)(=O)C3=CC=C(C=C3)OC [KN-93] + CC1(C)CCC(c2ccc(Cl)cc2)=C(CN2CCN(c3ccc(C(=O)NS(=O)(=O)c4ccc(N[C@H](CCN5CCOCC5)CSc5ccccc5)c(S(=O)(=O)C(F)(F)F)c4)cc3)CC2)C1 [Navitoclax] (partner 0.5 µM)
How it was run: (§1)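 Lung cancer cell lines were pin-tool dosed in 1536-well plates on the day after seeding, with either a lone drug or a fixed anchor-drug dose plus five library-drug doses (not always all listed) in √10 steps. Nuclei were counted on 4× images after 5 days. Relative viability is the ratio of treated-well to vehicle-well nuclei counts, with each value a median of duplicate plates.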

KN-93 + Foretinib = compound: CN(C/C=C/C1=CC=C(C=C1)Cl)CC2=CC=CC=C2N(CCO)S(=O)(=O)C3=CC=C(C=C3)OC [KN-93] + COc1cc2c(Oc3ccc(NC(=O)C4(C(=O)Nc5ccc(F)cc5)CC4)cc3F)ccnc2cc1OCCCN1CCOCC1 [Foretinib] (partner 0.25 µM)
How it was run: as §1

KN-93 + Lapatinib = compound: CN(C/C=C/C1=CC=C(C=C1)Cl)CC2=CC=CC=C2N(CCO)S(=O)(=O)C3=CC=C(C=C3)OC [KN-93] + CS(=O)(=O)CCNCc1ccc(-c2ccc3ncnc(Nc4ccc(OCc5cccc(F)c5)c(Cl)c4)c3c2)o1 [Lapatinib] (partner 2 µM)
How it was run: as §1

KN-93 + Pictilisib = compound: CN(C/C=C/C1=CC=C(C=C1)Cl)CC2=CC=CC=C2N(CCO)S(=O)(=O)C3=CC=C(C=C3)OC [KN-93] + CS(=O)(=O)N1CCN(Cc2cc3nc(-c4cccc5[nH]ncc45)nc(N4CCOCC4)c3s2)CC1 [Pictilisib] (partner 1 µM)
How it was run: as §1

KN-93 + Crizotinib = compound: CN(C/C=C/C1=CC=C(C=C1)Cl)CC2=CC=CC=C2N(CCO)S(=O)(=O)C3=CC=C(C=C3)OC [KN-93] + C[C@@H](Oc1cc(-c2cnn(C3CCNCC3)c2)cnc1N)c1c(Cl)ccc(F)c1Cl [Crizotinib] (partner 1 µM)
How it was run: as §1

KN-93 + Linsitinib = compound: CN(C/C=C/C1=CC=C(C=C1)Cl)CC2=CC=CC=C2N(CCO)S(=O)(=O)C3=CC=C(C=C3)OC [KN-93] + C[C@]1(O)C[C@@H](c2nc(-c3ccc4ccc(-c5ccccc5)nc4c3)c3c(N)nccn32)C1 [Linsitinib] (partner 1 µM)
How it was run: as §1

KN-93 + Alpelisib = compound: CN(C/C=C/C1=CC=C(C=C1)Cl)CC2=CC=CC=C2N(CCO)S(=O)(=O)C3=CC=C(C=C3)OC [KN-93] + Cc1nc(NC(=O)N2CCC[C@H]2C(N)=O)sc1-c1ccnc(C(C)(C)C(F)(F)F)c1 [Alpelisib] (partner 2 µM)
How it was run: as §1

KN-93 + Phenformin = compound: CN(C/C=C/C1=CC=C(C=C1)Cl)CC2=CC=CC=C2N(CCO)S(=O)(=O)C3=CC=C(C=C3)OC [KN-93] + N=C(N)NC(=N)NCCc1ccccc1 [Phenformin] (partner 250 µM)
How it was run: as §1

KN-93 + Decitabine = compound: CN(C/C=C/C1=CC=C(C=C1)Cl)CC2=CC=CC=C2N(CCO)S(=O)(=O)C3=CC=C(C=C3)OC [KN-93] + Nc1ncn([C@H]2C[C@H](O)[C@@H](CO)O2)c(=O)n1 [Decitabine] (partner 2 µM)
How it was run: as §1

KN-93 + Olaparib = compound: CN(C/C=C/C1=CC=C(C=C1)Cl)CC2=CC=CC=C2N(CCO)S(=O)(=O)C3=CC=C(C=C3)OC [KN-93] + O=C(c1cc(Cc2n[nH]c(=O)c3ccccc23)ccc1F)N1CCN(C(=O)C2CC2)CC1 [Olaparib] (partner 8 µM)
How it was run: as §1

KN-93 + Bortezomib = compound: CN(C/C=C/C1=CC=C(C=C1)Cl)CC2=CC=CC=C2N(CCO)S(=O)(=O)C3=CC=C(C=C3)OC [KN-93] + CC(C)C[C@H](NC(=O)[C@H](Cc1ccccc1)NC(=O)c1cnccn1)B(O)O [Bortezomib] (partner 0.002 µM)
How it was run: as §1

A549 gave a relative viability (KN-93; 0.08 µM) of 0.79, a relative viability (KN-93; 0.253 µM) of 1.06 and a relative viability (KN-93; 2.53 µM) of 1.26. It also gave a relative viability (KN-93; 8 µM) of 0.553, a relative viability (KN-93 + Navitoclax; first compound 0.08 µM) of 1.06 and a relative viability (KN-93 + Navitoclax; first compound 0.253 µM) of 1.33. It also gave a relative viability (KN-93 + Navitoclax; first compound 2.53 µM) of 1.44, a relative viability (KN-93 + Navitoclax; first compound 8 µM) of 0.513 and a relative viability (KN-93 + Foretinib; first compound 0.08 µM) of 0.911. For the same cell line, the relative viability (KN-93 + Foretinib; first compound 0.253 µM) was 1.14, the relative viability (KN-93 + Foretinib; first compound 2.53 µM) was 0.995 and the relative viability (KN-93 + Foretinib; first compound 8 µM) was 0.585. The relative viability (KN-93 + Lapatinib; first compound 0.08 µM) was 0.863, the relative viability (KN-93 + Lapatinib; first compound 0.253 µM) was 0.937 and the relative viability (KN-93 + Lapatinib; first compound 2.53 µM) was 1.01. The relative viability (KN-93 + Lapatinib; first compound 8 µM) was 0.385, the relative viability (KN-93 + Pictilisib; first compound 0.253 µM) was 0.609 and the relative viability (KN-93 + Pictilisib; first compound 2.53 µM) was 1. The relative viability (KN-93 + Pictilisib; first compound 8 µM) was 0.225, the relative viability (KN-93 + Crizotinib; first compound 0.08 µM) was 0.847 and the relative viability (KN-93 + Crizotinib; first compound 0.253 µM) was 1.05. For the same cell line, the relative viability (KN-93 + Crizotinib; first compound 2.53 µM) was 0.944, the relative viability (KN-93 + Crizotinib; first compound 8 µM) was 0.28 and the relative viability (KN-93 + Linsitinib; first compound 0.08 µM) was 0.519. For the same cell line, the relative viability (KN-93 + Linsitinib; first compound 0.253 µM) was 0.722, the relative viability (KN-93 + Linsitinib; first compound 2.53 µM) was 0.746 and the relative viability (KN-93 + Linsitinib; first compound 8 µM) was 0.476. The relative viability (KN-93 + Alpelisib; first compound 0.08 µM) was 0.717, the relative viability (KN-93 + Alpelisib; first compound 0.253 µM) was 0.914 and the relative viability (KN-93 + Alpelisib; first compound 2.53 µM) was 0.849. For the same cell line, the relative viability (KN-93 + Alpelisib; first compound 8 µM) was 0.546, the relative viability (KN-93 + Phenformin; first compound 0.08 µM) was 0.183 and the relative viability (KN-93 + Phenformin; first compound 0.253 µM) was 0.347. The relative viability (KN-93 + Phenformin; first compound 2.53 µM) was 0.922, the relative viability (KN-93 + Phenformin; first compound 8 µM) was 0.132 and the relative viability (KN-93 + Decitabine; first compound 0.253 µM) was 0.285. The relative viability (KN-93 + Decitabine; first compound 2.53 µM) was 0.313, the relative viability (KN-93 + Decitabine; first compound 8 µM) was 0.294 and the relative viability (KN-93 + Olaparib; first compound 0.08 µM) was 0.303. It also gave a relative viability (KN-93 + Olaparib; first compound 0.253 µM) of 0.336, a relative viability (KN-93 + Olaparib; first compound 2.53 µM) of 0.65 and a relative viability (KN-93 + Olaparib; first compound 8 µM) of 0.0828.

Cell Line Calu-6 has a relative viability (KN-93; 0.08 µM) of 0.872, a relative viability (KN-93; 0.253 µM) of 1.09 and a relative viability (KN-93; 2.53 µM) of 1.16. It also gave a relative viability (KN-93; 8 µM) of 0.69, a relative viability (KN-93 + Bortezomib; first compound 0.08 µM) of 1.1 and a relative viability (KN-93 + Bortezomib; first compound 0.253 µM) of 1.05. For the same cell line, the relative viability (KN-93 + Bortezomib; first compound 2.53 µM) was 1.13, the relative viability (KN-93 + Bortezomib; first compound 8 µM) was 0.633 and the relative viability (KN-93 + Navitoclax; first compound 0.08 µM) was 0.805. It also gave a relative viability (KN-93 + Navitoclax; first compound 0.253 µM) of 0.894, a relative viability (KN-93 + Navitoclax; first compound 2.53 µM) of 0.951 and a relative viability (KN-93 + Navitoclax; first compound 8 µM) of 0.36. For the same cell line, the relative viability (KN-93 + Foretinib; first compound 0.08 µM) was 0.861, the relative viability (KN-93 + Foretinib; first compound 0.253 µM) was 0.997 and the relative viability (KN-93 + Foretinib; first compound 2.53 µM) was 0.882. The relative viability (KN-93 + Foretinib; first compound 8 µM) was 0.622, the relative viability (KN-93 + Lapatinib; first compound 0.08 µM) was 0.932 and the relative viability (KN-93 + Lapatinib; first compound 0.253 µM) was 1.25. It also gave a relative viability (KN-93 + Lapatinib; first compound 2.53 µM) of 1.37, a relative viability (KN-93 + Lapatinib; first compound 8 µM) of 0.567 and a relative viability (KN-93 + Pictilisib; first compound 0.253 µM) of 1.06. The relative viability (KN-93 + Pictilisib; first compound 2.53 µM) was 1.09, the relative viability (KN-93 + Pictilisib; first compound 8 µM) was 0.454 and the relative viability (KN-93 + Crizotinib; first compound 0.08 µM) was 0.638. For the same cell line, the relative viability (KN-93 + Crizotinib; first compound 0.253 µM) was 1.09, the relative viability (KN-93 + Crizotinib; first compound 2.53 µM) was 0.786 and the relative viability (KN-93 + Crizotinib; first compound 8 µM) was 0.41. It also gave a relative viability (KN-93 + Linsitinib; first compound 0.08 µM) of 0.784, a relative viability (KN-93 + Linsitinib; first compound 0.253 µM) of 1 and a relative viability (KN-93 + Linsitinib; first compound 2.53 µM) of 1.16. For the same cell line, the relative viability (KN-93 + Linsitinib; first compound 8 µM) was 0.904, the relative viability (KN-93 + Alpelisib; first compound 0.08 µM) was 1.09 and the relative viability (KN-93 + Alpelisib; first compound 0.253 µM) was 1.12. The relative viability (KN-93 + Alpelisib; first compound 2.53 µM) was 0.981, the relative viability (KN-93 + Alpelisib; first compound 8 µM) was 0.644 and the relative viability (KN-93 + Olaparib; first compound 0.08 µM) was 0.503. It also gave a relative viability (KN-93 + Olaparib; first compound 0.253 µM) of 0.546, a relative viability (KN-93 + Olaparib; first compound 2.53 µM) of 0.699 and a relative viability (KN-93 + Olaparib; first compound 8 µM) of 0.429.
